The EC50 is the concentration needed to bring the measured effect to its halfway point. Low values mean higher potency in that assay, high ones lower potency in that assay.

The structures appear in SMILES notation.

The test system of data set [1] is Plasmodium falciparum. Kind of data set: Antimalarial activity against chloroquine-sensitive Plasmodium falciparum 3D7 infected in erythroctes incubated for 72 hrs by SYBR green 1 based spectrofluorometer. The class given is functional, organism-based, Erythrocyte.
The nature of data set [2]: Cytotoxicity against mouse J774.A1 cells. The class given is toxicity, cell-based.
Data set [3] concerns Plasmodium falciparum. Kind of data set: Antimalarial activity against chloroquine-resistant Plasmodium falciparum K1 infected in erythroctes incubated for 72 hrs by SYBR green 1 based spectrofluorometer. The format is functional, organism-based, Erythrocyte.
The mark [4] stands for this setting: Plasmodium falciparum, 3D7, Erythrocyte, 72 h.
Setting [5] is: Plasmodium falciparum, K1, Erythrocyte, 72 h.

As for `CCCC1=C(C(=O)OCC)C(c2ccccc2Cl)C2=C(CC(c3ccc(OC)c(OC)c3)OC2=O)N1` (stereo in doubt; 32A), the EC50 was 0.811 µM in the data set with Plasmodium falciparum [1] (erythrocyte), > 20 µM in data set [2] and 0.418 µM with Plasmodium falciparum [3] (erythrocyte).
The corresponding values for `CCOC(=O)C1=C(C)NC2=C(C(=O)OC(c3ccc(OC)c(OC)c3)C2)C1c1ccccc1Cl` (stereo in doubt; 3A) are 2.33 µM, > 20 µM and 1.39 µM.
In the case of `CCOC(=O)C1=C(C)NC2=C(C(=O)CC(c3ccc(OC)c(OC)c3)C2)C1c1ccccc1Cl` (stereo in doubt; 2A), the EC50 was 0.165 µM in the data set with Plasmodium falciparum [1] (erythrocyte), > 20 µM in data set [2] and 0.141 µM in the data set with Plasmodium falciparum [3] (erythrocyte).
Turning to `CCOC(=O)C1=C(C)NC2=C(C(=O)OC(c3ccc(Cl)c(OC)c3)C2)C1c1ccccc1Cl` (stereo in doubt; 40A), the EC50 is > 7.7 µM with Plasmodium falciparum [1] (erythrocyte), > 20 µM in data set [2] and 2.87 µM in the data set with Plasmodium falciparum [3] (erythrocyte).
Take `CCOC(=O)C1=C(C)NC2=C(C(=O)OC(c3ccc(OC)c(OC)c3)C2)C1c1ccccc1C` (stereo in doubt; 6A): the EC50 in the data set with Plasmodium falciparum [1] (erythrocyte) was 1.27 µM; in data set [2], > 20 µM; with Plasmodium falciparum [3] (erythrocyte), 2.05 µM.
Take `COc1ccc(C2CC3=C(C(=O)O2)C(c2ccccc2Cl)C(C(=O)OCc2ccccc2)=C(C)N3)cc1OC` (stereo in doubt; 31A): the EC50 in the data set on Plasmodium falciparum [1] (setting [4]) was > 11.8 µM; in data set [2], > 20 µM; with Plasmodium falciparum [3] (setting [5]) it was > 11.8 µM.
For the molecule `CCCC1=C(C(=O)OCC)C(c2ccc(Cl)cc2C)C2=C(CC(c3ccc(Cl)c(OC)c3)CC2=O)N1` (stereo in doubt; 46A), the EC50 is 0.319 µM with Plasmodium falciparum [1] (erythrocyte), > 20 µM in data set [2] and 0.244 µM in the data set on Plasmodium falciparum [3] (erythrocyte).
The corresponding values for `CCOC(=O)C1=C(C)NC2=C(C(=O)OC(c3ccc(OC)c(OC)c3)C2)C1c1ccc([N+](=O)[O-])cc1` (stereo in doubt; 13A) are > 10 µM, > 20 µM and > 10 µM.
The corresponding values for `CCOC(=O)C1=C(C)NC2=C(C(=O)CC(c3ccc(Cl)c(OC)c3)C2)C1c1ccccc1Cl` (stereo in doubt; 39A) are 0.63 µM, > 20 µM and 0.397 µM.
Regarding `CCOC(=O)C1=C(C)NC2=C(C(=O)OC(c3cccc(OC)c3)C2)C1c1ccccc1Cl` (stereo in doubt; 25A), the concentration for a half-maximal effect (EC50) was 2.13 µM in the data set on Plasmodium falciparum [1] (erythrocyte), > 20 µM in data set [2] and > 7 µM with Plasmodium falciparum [3] (erythrocyte).
The like results for `CCOC(=O)C1=C(C)NC2=C(C(=O)OC(c3ccc(OC)c(OC)c3)C2)C1c1ccccc1` (stereo in doubt; 1A) were, in that order, > 7.4 µM, > 20 µM and > 7.4 µM.
For `CCOC(=O)C1=C(C)NC2=C(C(=O)OC(c3ccc(OC)c(OC)c3)C2)C1c1cccc(C)c1` (stereo unspecified), the EC50 was > 10 µM in the data set on Plasmodium falciparum [1] (setting [4]), > 20 µM in data set [2] and > 10 µM in the data set with Plasmodium falciparum [3] (setting [5]).
For `CCOC(=O)C1=C(C)NC2=C(C(=O)OC(c3cccc(Cl)c3)C2)C1c1ccccc1Cl` (stereo unspecified), the EC50 with Plasmodium falciparum [1] (setting [4]) was > 6 µM; in data set [2] it was > 20 µM; with Plasmodium falciparum [3] (setting [5]), > 6 µM.
With `CCOC(=O)C1=C(C)NC2=C(C(=O)OC(c3ccc(OC)c(OC)c3)C2)C1c1ccc(Cl)cc1` (stereo in doubt; 5A), the concentration giving a half-maximal response (EC50) in the data set with Plasmodium falciparum [1] (erythrocyte) was 0.769 µM; in data set [2] it was > 20 µM; in the data set on Plasmodium falciparum [3] (erythrocyte), 0.633 µM.
Consider `CCOC(=O)C1=C(C)NC2=C(C(=O)OC(c3ccc(OC)c(OC)c3)C2)C1c1cccc(OC)c1` (stereo unspecified), for which the results for the EC50 (in the data set on Plasmodium falciparum [1] (setting [4]); in data set [2]; in the data set with Plasmodium falciparum [3] (setting [5])) were > 10 µM, > 20 µM and > 10 µM, respectively.
For `CCOC(=O)C1=C(C)NC2=C(C(=O)OC(c3ccc(OC)c(OC)c3)C2)C1c1ccc2ccccc2c1` (stereo unspecified), the EC50 in the data set with Plasmodium falciparum [1] (setting [4]) is > 10 µM; in data set [2] it was > 20 µM; in the data set on Plasmodium falciparum [3] (setting [5]) it was > 10 µM.
`CCOC(=O)C1=C(C)NC2=C(C(=O)OC(c3ccccc3OC)C2)C1c1ccccc1Cl` (stereo in doubt; 24A): the EC50 in the data set on Plasmodium falciparum [1] (setting [4]) is > 6 µM; in data set [2] it was > 20 µM; with Plasmodium falciparum [3] (setting [5]) it was > 6 µM.
For the molecule `CCOC(=O)C1=C(C)NC2=C(C(=O)OC(c3ccc(OC)c(OC)c3)C2)C1c1ccc(Br)cc1` (stereo in doubt; 12A), the EC50 in the data set on Plasmodium falciparum [1] (erythrocyte) was 1.45 µM; in data set [2] it was > 20 µM; with Plasmodium falciparum [3] (erythrocyte), 3.37 µM.
As to `CCOC(=O)C1=C(C)NC2=C(C(=O)OC(c3ccccc3C)C2)C1c1ccccc1Cl` (stereo unspecified), the EC50 in the data set on Plasmodium falciparum [1] (setting [4]) was > 5 µM; in data set [2] it was > 20 µM; with Plasmodium falciparum [3] (setting [5]), > 5 µM.
`COCC1=C(C(=O)OC)C(c2ccc(Cl)cc2)C2=C(CC(c3cc(OC)c(OC)c(OC)c3)OC2=O)N1` (stereo in doubt; 56A): the EC50 in the data set on Plasmodium falciparum [1] (erythrocyte) was 0.061 µM; in data set [2] it was > 20 µM; in the data set on Plasmodium falciparum [3] (setting [5]) it was 0.0624 µM.
Regarding `CCOC(=O)C1=C(c2ccccc2)NC2=C(C(=O)CC(c3ccc(OC)c(OC)c3)C2)C1c1ccccc1Cl` (stereo in doubt; 35A), the EC50 is 3.72 µM in the data set on Plasmodium falciparum [1] (erythrocyte), > 20 µM in data set [2] and > 10.9 µM in the data set with Plasmodium falciparum [3] (erythrocyte).
The corresponding values for `CCOC(=O)C1=C(C)NC2=C(C(=O)OC(c3ccc(Cl)cc3)C2)C1c1ccccc1Cl` (stereo in doubt; 20A) are 0.51 µM, > 20 µM and 0.56 µM.
The like results for `CCOC(=O)C1=C(C)NC2=C(C(=O)OC(c3ccc(Cl)c(OC)c3)C2)C1c1ccc(Cl)cc1C` (stereo in doubt; 42A) were, in that order, > 13 µM, > 20 µM and > 13 µM.
On to `CCCC1=C(C(=O)OCC)C(c2ccc(Cl)cc2C)C2=C(CC(c3ccc(OC)c(OC)c3)CC2=O)N1` (stereo in doubt; 44A), for which the figures for the EC50 (with Plasmodium falciparum [1] (erythrocyte); in data set [2]; with Plasmodium falciparum [3] (erythrocyte)) were 0.0983 µM, > 20 µM and 0.0829 µM, respectively.
The like results for `CCCOC(=O)C1=C(C)NC2=C(C(=O)OC(c3ccc(OC)c(OC)c3)C2)C1c1ccccc1Cl` (stereo in doubt; 29A) were, in that order, 2.36 µM, > 20 µM and > 7 µM.
For `CCOC(=O)C1=C(C)NC2=C(C(=O)OC(c3ccc(OC)cc3)C2)C1c1ccccc1Cl` (stereo in doubt; 26A), the EC50 was > 7 µM in the data set with Plasmodium falciparum [1] (erythrocyte), > 20 µM in data set [2] and > 7 µM in the data set with Plasmodium falciparum [3] (erythrocyte).
For `CCOC(=O)C1=C(C)NC2=C(C(=O)OC(c3ccc(C)cc3)C2)C1c1ccccc1Cl` (stereo in doubt; 23A), the 50% effective concentration (EC50) was > 5 µM in the data set with Plasmodium falciparum [1] (setting [4]), > 20 µM in data set [2] and > 5 µM in the data set with Plasmodium falciparum [3] (erythrocyte).
As to `CCOC(=O)C1=C(C)NC2=C(C(=O)CC(c3ccc(OC)c(OC)c3)C2)C1c1ccc(Cl)cc1` (stereo in doubt; 36A), the EC50 in the data set with Plasmodium falciparum [1] (erythrocyte) was 0.264 µM; in data set [2], > 20 µM; in the data set on Plasmodium falciparum [3] (erythrocyte), 0.221 µM.
With `CCOC(=O)C1=C(C)NC2=C(C(=O)OC(c3ccc(OC)c(OC)c3)C2)C1c1cccc2ccccc12` (stereo unspecified), the concentration for a half-maximal effect (EC50) is > 10 µM in the data set with Plasmodium falciparum [1] (setting [4]), > 20 µM in data set [2] and > 10 µM in the data set with Plasmodium falciparum [3] (setting [5]).
With `CCOC(=O)C1=C(C)NC2=C(C(=O)OC(c3ccc(OC)c(OC)c3)C2)C1c1ccccc1OC` (stereo in doubt; 9A), the EC50 was > 5.6 µM in the data set on Plasmodium falciparum [1] (erythrocyte), > 20 µM in data set [2] and > 5.6 µM in the data set on Plasmodium falciparum [3] (setting [5]).
As to `CCOC(=O)C1=C(C)NC2=C(C(=O)OC(c3cccc(C)c3)C2)C1c1ccccc1Cl` (stereo in doubt; 22A), the EC50 with Plasmodium falciparum [1] (setting [4]) was > 5 µM; in data set [2] it was > 20 µM; in the data set with Plasmodium falciparum [3] (setting [5]) it was > 5 µM.
Take `COc1ccc(C2CC3=C(C(=O)O2)C(c2ccccc2Cl)C(C(=O)OC(C)(C)C)=C(C)N3)cc1OC` (stereo in doubt; 30A): the values for the EC50 (in the data set on Plasmodium falciparum [1] (setting [4]); in data set [2]; in the data set on Plasmodium falciparum [3] (erythrocyte)) were > 13 µM, > 20 µM and > 13 µM, respectively.
In the case of `CCCC1=C(C(=O)OCC)C(c2ccc(Cl)cc2C)C2=C(CC(c3ccc(OC)c(OC)c3)OC2=O)N1` (stereo in doubt; 45A), the EC50 was 0.148 µM in the data set on Plasmodium falciparum [1] (erythrocyte), > 20 µM in data set [2] and 0.102 µM in the data set on Plasmodium falciparum [3] (erythrocyte).
In the case of `CCOC(=O)C1=C(C)NC2=C(C(=O)OC(c3ccc(OC)c(OC)c3)C2)C1c1ccc(-c2ccccc2)cc1` (stereo unspecified), the EC50 was > 10 µM in the data set with Plasmodium falciparum [1] (setting [4]), > 20 µM in data set [2] and > 10 µM in the data set with Plasmodium falciparum [3] (setting [5]).
Regarding `CCCC1=C(C(=O)OCC)C(c2ccc(Cl)cc2C)C2=C(CC(c3cc(OC)ccc3OC)CC2=O)N1` (stereo in doubt; 48A), the figures for the EC50 (in the data set with Plasmodium falciparum [1] (erythrocyte); in data set [2]; in the data set with Plasmodium falciparum [3] (erythrocyte)) were 0.542 µM, > 20 µM and 0.228 µM, respectively.
Regarding `CCOC(=O)C1=C(C)NC2=C(C(=O)OC(c3cc(OC)c(OC)c(OC)c3)C2)C1c1ccccc1Cl` (stereo in doubt; 54A), the EC50 with Plasmodium falciparum [1] (erythrocyte) was 0.322 µM; in data set [2], > 20 µM; in the data set with Plasmodium falciparum [3] (erythrocyte) it was 0.315 µM.
The like results for `COC(=O)C1=C(C)NC2=C(C(=O)OC(c3ccc(OC)c(OC)c3)C2)C1c1ccccc1Cl` (stereo in doubt; 28A) were, in that order, > 8.5 µM, > 20 µM and > 8.5 µM.
The like results for `CCOC(=O)C1=C(C(=O)OCC)C(c2ccccc2Cl)C2=C(CC(c3ccc(OC)c(OC)c3)OC2=O)N1` (stereo in doubt; 33A) were, in that order, 0.0381 µM, > 20 µM and 0.0136 µM.
In the case of `CCOC(=O)C1=C(C)NC2=C(C(=O)CC(c3ccc(OC)c(OC)c3)C2)C1c1ccc(Cl)cc1C` (stereo in doubt; 37A), the EC50 with Plasmodium falciparum [1] (erythrocyte) was 0.094 µM; in data set [2] it was > 20 µM; in the data set on Plasmodium falciparum [3] (erythrocyte), 0.0826 µM.
The corresponding values for `COCC1=C(C(=O)OC)C(c2ccc(Cl)cc2C)C2=C(CC(c3ccc(OC)c(OC)c3)CC2=O)N1` (stereo in doubt; 51A) are 0.0396 µM, > 20 µM and 0.0216 µM.
Consider `CCOC(=O)C1=C(C)NC2=C(C(=O)OC(c3ccccc3Cl)C2)C1c1ccccc1Cl` (stereo in doubt; 18A), for which the EC50 is > 5.5 µM in the data set with Plasmodium falciparum [1] (setting [4]), > 20 µM in data set [2] and > 5.5 µM in the data set with Plasmodium falciparum [3] (setting [5]).
Turning to `CCCC1=C(C(=O)OCC)C(c2ccccc2Cl)C2=C(CC(c3ccc(OC)c(OC)c3)CC2=O)N1` (stereo in doubt; 43A), the EC50 in the data set on Plasmodium falciparum [1] (erythrocyte) was 0.0286 µM; in data set [2], > 20 µM; in the data set on Plasmodium falciparum [3] (erythrocyte), 0.0265 µM.

Values taken from ChEMBL document CHEMBL5579840, “Optimization of diastereomeric dihydropyridines as antimalarials” (Eur J Med Chem, 2024).
